According to patent publication US20220241249A1, “PHARMACEUTICAL COMPOSITION AND KIT CONTAINING NOVEL PENAM DERIVATIVE OR SALT THEREOF AND ONE OR MORE COMPOUNDS SELECTED FROM beta-LACTAMASE INHIBITORY COMPOUND AND ANTIBACTERIAL COMPOUND OR SALTS THEREOF” (priority 2019, published 2022):
Values after ≈ are worked out from the molar mass of the structure shown. Where two headings read alike, the source gives them in different places. One block for each compound: values may come before it.

Assays:
[1] = system: AmpC-derepressed Pseudomonas aeruginosa mutant strain (S-3028); assay: Antibacterial activity evaluation test, MIC by broth microdilution (CLSI); assay type: cell-based
How it was run: (§1)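 Overnight Mueller Hinton agar cultures were suspended to 0.5 McFarland, diluted 10-fold and used to inoculate cation-adjusted Mueller Hinton broth containing test compound. Plates were incubated at 35° C. for 16 to 20 hours; MIC (μg/mL) was the lowest concentration without visible growth.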

[2] = system: CTX-M-15-containing Escherichia coli strain (TK-1747); assay: as above; assay type: cell-based
How it was run: as §1

[3] = system: GES-19 and GES-20-containing Pseudomonas aeruginosa strain (S-3759); assay: as above; assay type: cell-based
How it was run: as §1

[4] = system: IMP-1-containing Pseudomonas aeruginosa strain (S-2838); assay: as above; assay type: cell-based
How it was run: as §1

[5] = system: KPC-2-containing Klebsiella pneumoniae strain (Y-995); assay: as above; assay type: cell-based
How it was run: as §1

[6] = system: NDM-1-containing Klebsiella pneumoniae strain (Y-1007); assay: as above; assay type: cell-based
How it was run: as §1

[7] = system: OXA-48-containing Klebsiella pneumoniae strain (Y-1062); assay: as above; assay type: cell-based
How it was run: as §1

[8] = system: Pseudomonas aeruginosa strain ATCC27853; assay: as above; assay type: cell-based; details: Pseudomonas aeruginosa, ATCC27853
How it was run: as §1

[9] = system: VIM-2-containing Pseudomonas aeruginosa strain (S-3779); assay: as above; assay type: cell-based
How it was run: as §1

[10] = system: multidrug-resistant Pseudomonas aeruginosa strain (S-2838 strain); assay: Test for protection against systemic infection in mouse with multidrug-resistant Pseudomonas aeruginosa; assay type: in vivo; details: sc, 72 h, read-out: survival rate 3 days after the inoculation with bacteria
Protocol: As mice, ICR male SPF mice (4 weeks old: 10 mice per group) were used. Clinically isolated multidrug-resistant Pseudomonas aeruginosa strain (S-2838 strain) cultured overnight on a Mueller-Hinton agar plate at 37° C. was cultured on a cation-adjusted Mueller Hinton medium for 5 hours, and then diluted 20-fold with a 10% mucin/phosphate buffer, thereby preparing an inoculum. An infection was induced by intraperitoneally inoculating the mice with the inoculum at 0.5 mL (about 10^6 CFU/mouse). Each test compound was dissolved in physiological saline, and 1 hour after the infection, the compound was subcutaneously administered once to the mice at 40 mg/kg. The control group was administered with the same amount of physiological saline used as a vehicle. The number of surviving mice was recorded 3 days after the infection.
A test for protection against systemic infection in a mouse with multidrug-resistant Pseudomonas aeruginosa was performed in the same manner as in Test Example 2.

[11] = system: Escherichia coli TK-1747 strain producing CTX-M-15 (strain A); assay: MIC of test compound alone or with β-lactamase inhibitor at 4 μg/mL; assay type: cell-based; details: Escherichia coli, test compound alone (β-lactamase inhibitor N/A), read-out: MIC
Protocol: (§2) By using a broth microdilution method, the combinational effect of a test compound and a β-lactamase inhibitor was evaluated.
(§3) The evaluation test for antibacterial activity was performed in the same manner as in Test Example 1.
Escherichia coli TK-1747 strain producing CTX-M-15 (hereinafter, called strain A),

[12] = system: Klebsiella pneumoniae Y-1020 strain producing KPC-3 and SHV-12 (strain B); assay: as above; assay type: cell-based; details: Klebsiella pneumoniae, Strain B, read-out: MIC
Protocol: as §2, §3

[13] = system: Klebsiella pneumoniae Y-1133 strain producing NDM-1, OXA-48, and CTX-M-15 (strain C); assay: as above; assay type: cell-based; details: Klebsiella pneumoniae
Protocol: as §2, §3
Klebsiella pneumoniae Y-1133 strain producing NDM-1, OXA-48, and CTX-M-15 (hereinafter, called strain C),
(§4) An antibacterial activity evaluation test was performed in the same manner as in Test Example 6.
(§5) As the bacterial strain, the strains B, C, and D producing β-lactamase and a Klebsiella pneumoniae Y-1069 strain (hereinafter, called strain F) producing OXA-48 and CTX-M-15 were used.

[14] = system: Escherichia coli TK-3113 strain producing IMP-8 (strain D); assay: as above; assay type: cell-based; details: Escherichia coli
Protocol: as §2, §3
Escherichia coli TK-3113 strain producing IMP-8 (hereinafter, called strain D),
as §4, §5

[15] = system: Klebsiella pneumoniae Y-1069 strain producing OXA-48 and CTX-M-15 (strain F); assay: as above; assay type: cell-based; details: for MIC: Klebsiella pneumoniae, Strain F
Protocol: as §3, §4, §5

[16] = test compound alone (β-lactamase inhibitor N/A)

Compound: CC(C)(O/N=C(\C(=O)N[C@@H]1C(=O)N2C[C@@](C(=O)O)(N3CCN(NC(=O)C(=O)c4ccc(O)c(O)c4Cl)C3=O)S[C@H]12)c1nsc(N)n1)C(=O)O [Example 23, (3R,5R,6R)-6-((Z)-2-(5-amino-1,2,4-thiadiazol-3-yl)-2-(((2-carboxypropan-2-yl)oxy)imino)acetamido)-3-(3-(2-(2-chloro-3,4-dihydroxyphenyl)-2-oxoacetamido)-2-oxoimidazolidin-1-yl)-7-oxo-4-thia-1-azabicyclo[3.2.0]heptane-3-carboxylic acid]
MIC ([1]; Pseudomonas aeruginosa): 0.5 µg/mL (≈ 0.674 µM) | MIC ([2]; Escherichia coli): 0.25 µg/mL (≈ 0.337 µM) | MIC ([3]; Pseudomonas aeruginosa): 1 µg/mL (≈ 1.35 µM) | MIC ([4]; Pseudomonas aeruginosa): 1 µg/mL (≈ 1.35 µM) | MIC ([5]; Klebsiella pneumoniae): 0.25 µg/mL (≈ 0.337 µM) | MIC ([6]; Klebsiella pneumoniae): < 0.06 µg/mL | MIC ([7]; Klebsiella pneumoniae): 0.5 µg/mL (≈ 0.674 µM) | MIC [8]: 0.25 µg/mL (≈ 0.337 µM) | MIC ([9]; Pseudomonas aeruginosa): 0.25 µg/mL (≈ 0.337 µM) | responders at 40 mg/kg [10]: ≥ 90%

MIC [11]: > 128 µg/mL
Compound: CO/N=C(\C(=O)N[C@@H]1C(=O)N2C(C(=O)O)=C(COC(C)=O)CS[C@H]12)c1csc(N)n1 [CTX, cefotaxime sodium, reference compound]

Compound: CC(C)(O/N=C(\C(=O)NC1C(=O)N2C[C@@](C(=O)O)(N3CCN(NC(=O)C(=O)c4c(F)cc(O)c(O)c4Cl)C3=O)S[C@H]12)c1csc(N)n1)C(=O)O (stereo partly drawn) [Example 143]
Antibacterial activity (MIC) Pseudomonas aeruginosa S-3028 ([1]; Pseudomonas aeruginosa S-3028): 0.12 µg/mL | Antibacterial activity (MIC) Escherichia coli TK-1747 ([2]; Escherichia coli TK-1747): 0.12 µg/mL | Antibacterial activity (MIC) Pseudomonas aeruginosa S-3759 ([3]; Pseudomonas aeruginosa S-3759): 1 µg/mL | Antibacterial activity (MIC) Pseudomonas aeruginosa S-2838 ([4]; Pseudomonas aeruginosa S-2838): 0.5 µg/mL | Antibacterial activity (MIC) Klebsiella pneumoniae Y-995 ([5]; Klebsiella pneumoniae Y-995): 0.12 µg/mL | Antibacterial activity (MIC) Klebsiella pneumoniae Y-1007 ([6]; Klebsiella pneumoniae Y-1007): < 0.06 µg/mL | Antibacterial activity (MIC) Klebsiella pneumoniae Y-1062 ([7]; Klebsiella pneumoniae Y-1062): 2 µg/mL | Antibacterial activity (MIC) Pseudomonas aeruginosa ATCC 27853 [8]: 0.5 µg/mL | Antibacterial activity (MIC) Pseudomonas aeruginosa S-3779 ([9]; Pseudomonas aeruginosa S-3779): 0.25 µg/mL | MIC [12, 16]: 2 µg/mL | MIC ([12]; with AVI at 4 μg/mL): 0.5 µg/mL | MIC ([12]; with CVA at 4 μg/mL): 1 µg/mL | MIC ([12]; with NAC at 4 μg/mL): 0.03 µg/mL | MIC ([12]; with VOB at 4 μg/mL): 1 µg/mL | MIC ([12]; with ZID at 4 μg/mL): 0.03 µg/mL | MIC ([13]; with NAC at 4 μg/mL): 0.06 µg/mL | MIC ([13]; with ZID at 4 μg/mL): < 0.015 µg/mL | MIC [14, 16]: 0.5 µg/mL | MIC ([14]; with NAC at 4 μg/mL): < 0.015 µg/mL | MIC ([14]; with ZID at 4 μg/mL): < 0.015 µg/mL | MIC [15, 16]: 8 µg/mL | MIC ([15]; with AVI at 4 μg/mL): 0.25 µg/mL | MIC ([15]; with CVA at 4 μg/mL): 4 µg/mL | MIC ([15]; with NAC at 4 μg/mL): 0.12 µg/mL | MIC ([15]; with SBT at 4 μg/mL): 4 µg/mL | MIC ([15]; with TAZ at 4 μg/mL): 4 µg/mL | MIC ([15]; with ZID at 4 μg/mL): < 0.015 µg/mL | antibacterial activity in combination with a β-lactamase inhibitor versus without ([15]; for all the bacterial strains (strains B, C, D and F), summary of Tables 51 and 52): higher antibacterial activity
